Results reported in US20090324700A1, “METHODS AND COMPOSITIONS FOR THE INHIBITION OF CATHEPSINS” (priority 2003, published 2009).
Residues, ends and D or L forms follow the SMILES beside them. *: point of attachment. Cbz = O=C(OCc1ccccc1)*; CH2F = FC*

Experiments:
RelA^−/− MEFs = test: Survival assay, TNF-α and CHX, RelA^−/− MEFs; assay type: cell-based, mouse; details: CHX 0.1 μg/ml
cathepsin B = biological target: T1, cathepsin B (Mus musculus, UniProt P10605); test: Cathepsin B activity in crude cytoplasmic extracts, RelA^−/− MEFs; assay type: cell-based
T1 construct: endogenous in cells; host or cells: RelA-/- or RelA+/+ MEFs (retrovirally transduced with GFP, RelA, Spi2A or antisense Spi2A)
Description: Survival Assays. Although RelA^−/− MEFs are markedly more sensitive to TNF-α compared to RelA^+/+ MEFs, low levels of CHX (0.1 μg/ml) were used in the survival assays. This was to suppress any protective activity of constitutively active non-RelA NF-κB molecules that are present in RelA^−/− MEFs (FIG. 4). Thus, RelA^−/− MEFs were treated with CHX and TNF-α (R&D) and the number of live GFP-positive adherent cells was counted by flow cytometry after 16 h, if not indicated otherwise. Live cells were defined as those that excluded propidium iodide (PI-negative) and had the appropriate size, as defined by forward and side scatter characteristics (Coligan et al., 1995). For RelA^+/+ MEFs, TNF-α-cytotoxicity was determined after 16 h with CHX (10 μg/ml), if not indicated otherwise. Cathepsin B activity was inhibited by a 1 h pre-treatment of MEFs with CA-074 Me (30 μM) (Peptide Institute). […] RelA^−/− MEFs were treated with (10-50 μM) sphingosine (Calbiochem) and the number of live GFP-positive adherent cells was counted by flow cytometry after 2 h.
Death effector assays. Death effector pathways were induced in […] MEFs by treatment TNF-α (0.2 ng/ml) and CHX (0.1 μg/ml). […] Protein concentration was determined by Lowry assay (DC-protein assay kit, Biorad). […]
Colorimetric assays for capases were performed in reaction buffer (50 mM HEPES, pH 7.4, 100 mM NaCl, 10 mM DTT, 1 mM EDTA, 10% glycerol, 0.1% CHAPS) at 37° C. on crude cytoplasmic extracts using p-Nitoaniline (pNA)-labeled substrates (Calbiochem) specific for caspases 3 and 7 (Ac-DEVD-pNA), caspase 8 (Ac-IETD-pNA), caspase 9 (Ac-LEHD-pNA), each at 0.2 mM. Specific activity was determined by subtracting the apparent activity detected after 1 h pre-incubation of extract with the pan-caspase inhibitor Z-VAD.fmk at 50 μM (ICN Biomedicals Inc), then normalizing for the amount of protein. […] Specific activity was determined by subtracting the apparent activity detected after 30 min pre-incubation of extract at 37° C. with the cathespin B inhibitor CA-074 Me at 30 μM (Peptide Institute) then normalizing for the amount of protein.

NIH3T3 cells = test: TNF-α death assays, NIH3T3 cells; assay type: cell-based; details: Z-VAD.fmk 50 μM, TNF-α 10 ng/ml, 16 h; FIG. 9A
Description: (§1) TNF-α death assays. NIH3T3 cells were transduced with MIGR1 retrovirus (Zhang and Ren, 1998) encoding either GFP alone, or Spi2A in the forward (sense) or reverse (antisense) orientation and stable clones generated, as described previously (Liu et al., 2003). Cells were treated with TNF-α (R&D) and after 16 h the number of live GFP-positive adherent cells were counted by flow cytometry (Liu et al., 2003). Live cells were defined as those that excluded propidium iodide (PI-negative) and had the appropriate size, as defined by forward and side light scatter characteristics. Caspase activity was inhibited by pre-treatment of cells or extracts for 1 h with Z-VAD.fmk (ICN Biomedicals Inc; 50 μM). […] In anti-sense experiments the level of Spi2A mRNA was quantitated by real-time PCR using primers and probes specific for Spi2A (Inglis et al., 1991) and cyclofilin A control mRNA (Medhurst et al., 2000), 4 h after treatment with Z-VAD.fmk ([…]) and TNF-α (10 ng/ml), as described previously (Liu et al., 2003).

caspase activity = test: Caspase activity enzyme assay, NIH3T3 cells; assay type: cell-based; details: Z-VAD.fmk 50 μM, 1 h pre-treatment; verified by enzyme assay
Description: as §1

T1 sequence (P10605 80-333): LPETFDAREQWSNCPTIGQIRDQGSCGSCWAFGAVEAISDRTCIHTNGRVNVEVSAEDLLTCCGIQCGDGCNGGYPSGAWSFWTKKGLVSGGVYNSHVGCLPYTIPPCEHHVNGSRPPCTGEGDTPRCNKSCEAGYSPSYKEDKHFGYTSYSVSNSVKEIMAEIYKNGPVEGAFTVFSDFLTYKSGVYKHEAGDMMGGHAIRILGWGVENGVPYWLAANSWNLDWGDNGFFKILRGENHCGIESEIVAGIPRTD

## RelA: human RelA (p65) cDNA expressed from MIGR1 retrovirus in RelA^−/− MEFs [reference compound]
RelA^−/− MEFs; 16 h, FIG. 1B, 2B
  Percentage survival after TNF-α and CHX, retrovirally transduced cells vs GFP: complete protection
Cathepsin B; TNF-α 0.2 ng/ml, CHX 0.1 μg/ml, FIG. 1C, 7A
  Cytosolic cathepsin B activity after TNF-α, retrovirally transduced cells: extinguished

## COC(=O)C[C@H](NC(=O)[C@H](C)NC(=O)[C@@H](NC(=O)OCc1ccccc1)C(C)C)C(=O)CF [Z-VAD.fmk, reference compound] (Cbz-Val-Ala-Asp(OMe)-CH2F)
NIH3T3 cells
  Sensitization to PCD by TNF-α (percentage survival): sensitized
Caspase activity
  Inhibition of caspase activity: complete inhibition

## CCCNC(=O)[C@H]1O[C@@H]1C(=O)N[C@H](C(=O)N1CCC[C@H]1C(=O)OC)[C@@H](C)CC [CA-074 Me, reference compound]
RelA^−/− MEFs; CA-074 Me 30 μM, TNF-α 0.5 ng/ml, FIG. 1A
  Protection from TNF-α-induced death (percentage survival): protected
Cathepsin B; CA-074 Me 30 μM, 1 h pre-treatment, verified by enzyme assay
  Inhibition of cathepsin B activity in MEFs: complete inhibition
